Reference: patent US20240076284A1, “NEW COMPOUNDS AND METHODS” (BENEVOLENTAI BIO LIMITED, priority 2020, published 2024)

How the values were obtained:
[1] = Human microsomal stability; assay type: in vitro ADME; conditions: human microsomes, first value of cell; NADPH, 37° C., up to 40 min
Experimental: (§1) This assay measures the metabolic stability of a given compound and predicts intrinsic liver clearance for various species. A quench plate is initially prepared which contains 400 μL MeCN and 25 ng/mL of internal standard. An aliquot of microsomes is defrosted and subsequently diluted with buffer. A solution of NADPH is made up fresh just before initialising the assay. 445 μL of microsome solution is added to the desired compound (5 μL in 10 μM DMSO) and the resulting solution mixed. The reaction is initiated by the addition of 50 μL of NADPH, a T0 sample is removed before the addition and quenched. The sample plate is kept at a constant 37° C. during the incubation. At pre-determined timepoints (2.5, 5, 10, 20 and 40 min) the incubation is mixed and 22.5 μL samples are transferred to quench plates. After completion of the time course, the quench plates are sealed and shaken for a minimum of 5 min, before centrifugation at 4000 rpm for 5 min. The supernatant is then subsequently transferred to a fresh plate and diluted 1:3 with MeOH/H2O. The plates are then heat sealed and analysed by a Water Acquity UPLC and a Waters TQ-S mass spectrometer. Waters MassLynx software is used for analysis using an MRM transition that has been previously generated from prior optimisation. After acquiring the data on the system the chromatograms are processed and checked using TargetLynx XS software and the raw data output is copied into a microsomal stability workbook. The workbook automatically populates and derives the CLint, t1/2 and scales the CLint values to generate Eh and predicted CL values. The analyst has the final workbook quality checked before the experiment is signed off.

BCRP = target: T1, BCRP (Homo sapiens, UniProt Q9UNQ0); assay: BCRP-MDCK effective efflux ratio; assay type: in vitro ADME; conditions: BCRP-MDCK relative to wild-type MDCK, 1 μM, 60 minutes, pH 7.4
T1 construct: expressed in transfected cells; host or cells: MDCK (canine kidney) cells
T1 sequence (Q9UNQ0 1-655): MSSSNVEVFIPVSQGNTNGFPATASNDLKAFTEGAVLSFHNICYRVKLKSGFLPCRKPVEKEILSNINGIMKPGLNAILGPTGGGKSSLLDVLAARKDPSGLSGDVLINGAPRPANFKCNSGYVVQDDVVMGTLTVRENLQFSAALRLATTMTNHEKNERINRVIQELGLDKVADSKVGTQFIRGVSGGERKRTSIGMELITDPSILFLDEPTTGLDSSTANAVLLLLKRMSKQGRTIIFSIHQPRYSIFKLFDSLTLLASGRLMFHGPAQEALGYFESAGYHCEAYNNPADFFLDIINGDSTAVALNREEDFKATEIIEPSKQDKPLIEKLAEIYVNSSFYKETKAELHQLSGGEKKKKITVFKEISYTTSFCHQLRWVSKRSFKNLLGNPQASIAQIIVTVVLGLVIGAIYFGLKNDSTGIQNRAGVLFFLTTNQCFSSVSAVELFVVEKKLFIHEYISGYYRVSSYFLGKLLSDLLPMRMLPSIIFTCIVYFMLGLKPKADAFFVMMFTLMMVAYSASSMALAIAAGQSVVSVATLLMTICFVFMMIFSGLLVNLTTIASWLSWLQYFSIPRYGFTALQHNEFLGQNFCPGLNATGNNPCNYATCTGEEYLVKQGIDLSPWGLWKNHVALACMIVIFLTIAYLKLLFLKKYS
Experimental: (§2) Wild-type MDCK, MDR1-MDCK and BCRP-MDCK cells were seeded into 24 well Transwell plates and cultured for 3 days to form monolayers. Test compound were prepared at 1 μM in Hanks' Balanced Salt Solution containing 25 mM HEPES and loaded into the donor compartments of Transwell plates bearing the cell monolayers (pH 7.4 for both donor and receiver compartments). Lucifer Yellow was added to the apical buffer in all wells to assess integrity of the cell monolayer. Duplicate wells were prepared and incubated at 37° C. in a CO2 incubator. Samples were removed at time zero and 60 minutes and test compound analysed by LC-MS/MS. Concentrations of Lucifer Yellow in the samples was measured using a fluorescence plate reader. The apparent permeability (Papp) values of test compound was determined for both the apical to basal (A>B) and basal to apical (B>A) permeation and the efflux ratio (B>A: A>B) determined in each cell line. The effective efflux ratio was determined from the ratio of either MDR1-MDCK cells or BCRP-MDCK cells relative to the ratio observed in wild-type cells. A higher value represent a better substrate for the efflux mechanism, which is less preferable.

MDR1 = target: T2, MDR1 (Homo sapiens, UniProt P08183); assay: MDR1-MDCK effective efflux ratio; assay type: in vitro ADME; conditions: MDR1-MDCK relative to wild-type MDCK, 1 μM, 60 minutes, pH 7.4
T2 construct: expressed in transfected cells; host or cells: MDCK (canine kidney) cells
T2 sequence (P08183 whole entry, species assumed): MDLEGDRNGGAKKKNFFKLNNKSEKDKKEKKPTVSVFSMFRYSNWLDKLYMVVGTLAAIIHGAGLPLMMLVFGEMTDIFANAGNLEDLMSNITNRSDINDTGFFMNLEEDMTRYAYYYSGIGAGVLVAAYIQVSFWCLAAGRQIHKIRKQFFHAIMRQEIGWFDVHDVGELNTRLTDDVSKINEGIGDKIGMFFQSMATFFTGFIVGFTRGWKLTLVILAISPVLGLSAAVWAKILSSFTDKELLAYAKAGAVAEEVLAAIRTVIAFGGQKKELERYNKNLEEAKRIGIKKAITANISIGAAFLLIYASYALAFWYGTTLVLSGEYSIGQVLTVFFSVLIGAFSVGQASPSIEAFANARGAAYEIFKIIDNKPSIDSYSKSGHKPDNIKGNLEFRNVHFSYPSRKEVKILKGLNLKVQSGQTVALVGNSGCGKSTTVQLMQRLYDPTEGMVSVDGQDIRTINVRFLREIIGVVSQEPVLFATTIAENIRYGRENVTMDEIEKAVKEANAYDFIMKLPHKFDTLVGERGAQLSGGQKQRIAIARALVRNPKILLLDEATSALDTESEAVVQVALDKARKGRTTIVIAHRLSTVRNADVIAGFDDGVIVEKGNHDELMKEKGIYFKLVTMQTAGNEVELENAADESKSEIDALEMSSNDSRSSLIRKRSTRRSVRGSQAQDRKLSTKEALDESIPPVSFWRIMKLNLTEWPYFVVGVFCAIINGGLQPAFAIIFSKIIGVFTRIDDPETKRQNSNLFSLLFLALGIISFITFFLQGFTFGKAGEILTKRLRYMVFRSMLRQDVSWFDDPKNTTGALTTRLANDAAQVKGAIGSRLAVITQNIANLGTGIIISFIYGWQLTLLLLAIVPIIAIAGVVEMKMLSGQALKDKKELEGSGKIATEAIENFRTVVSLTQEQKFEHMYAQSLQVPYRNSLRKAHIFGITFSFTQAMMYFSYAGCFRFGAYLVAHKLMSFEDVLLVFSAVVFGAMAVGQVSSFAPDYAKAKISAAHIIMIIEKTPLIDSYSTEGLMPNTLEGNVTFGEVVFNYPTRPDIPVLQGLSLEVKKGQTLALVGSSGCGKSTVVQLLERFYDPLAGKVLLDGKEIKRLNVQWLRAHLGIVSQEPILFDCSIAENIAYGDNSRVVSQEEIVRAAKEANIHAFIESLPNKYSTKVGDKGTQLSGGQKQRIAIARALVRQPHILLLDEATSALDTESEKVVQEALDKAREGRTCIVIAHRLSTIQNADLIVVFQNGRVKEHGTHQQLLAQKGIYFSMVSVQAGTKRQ
Experimental: as §2

Rat microsomal stability = assay type: in vitro ADME; conditions: rat microsomes, second value of cell; NADPH, 37° C., up to 40 min
Experimental: as §1

[2] = target: T3, Ba/F3 cells expressing BCR-ABL (Homo sapiens, UniProt P00519); assay: Ba/F3 CellTiter-Glo Assay; assay type: cell-based; conditions: 48 h incubation, CellTiter-Glo luminescence
T3 construct: BCR (fusion partner, N-terminal portion of BCR); host or cells: Ba/F3 (murine pro-B cells); the other entry of the earlier key: BCR (P11274, Breakpoint cluster region protein)
T3 sequence (P00519 229-512 limits assumed): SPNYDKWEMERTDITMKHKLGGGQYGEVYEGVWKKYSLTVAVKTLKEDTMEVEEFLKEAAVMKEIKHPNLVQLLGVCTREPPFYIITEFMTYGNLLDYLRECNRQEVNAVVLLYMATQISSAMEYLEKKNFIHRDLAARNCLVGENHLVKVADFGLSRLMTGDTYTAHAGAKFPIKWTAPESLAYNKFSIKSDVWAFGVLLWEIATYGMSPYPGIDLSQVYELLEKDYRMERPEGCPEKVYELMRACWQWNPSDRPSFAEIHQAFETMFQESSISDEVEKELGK
Experimental: The CellTiter-Glo luminescent cell viability assay is a homogeneous method of determining the number of viable cells in culture based on quantification of the ATP present. Briefly, IL-3 dependent Ba/F3 cells are modified to express BCR-ABL. Activity of the transformed kinase overrides IL-3 dependency for cellular proliferation and survival. […] In this assay Ba/F3 cells expressing BCR-ABL (Advanced Cellular Dynamics) or parental Ba/F3 (control) cells were prepared at 5×10^4/mL in RPMI 1640 containing 10% FBS, 1×Glutamax and 750 ng/mL puromycin. Test compounds were dispensed into 384 well plates using the Tecan D300e at a top final assay concentration of 10 μM with dosing normalised to 0.1% DMSO in […]. 50 μL cells were added to each well of the prepared 384 well plates and the plates spun at 1000 rpm for 1 min prior to incubation at 37° C., 5% CO2 for 48 h. After 48 h 15 μL CellTiter-Glo reagent was added to each well in the plate. Following a 60 min incubation at rt luminescence was read on the Pherastar FS reader.

Cc1ccc(C(=O)Nc2cc(C(F)(F)F)ccn2)cc1-n1cc(-c2cnn(C)c2C)cn1 [Example 4, 3-[4-(1,5-Dimethylpyrazol-4-yl)pyrazol-1-yl]-4-methyl-N-[4-(trifluoromethyl)-2-pyridyl]benzamide]
Microsomal stability (human/rat) Eh [1]: < 0.44
MDCK BCRP EER (BCRP): 1.3
MDCK MDR1 EER (MDR1): 1.2
Microsomal stability (human/rat) Eh (Rat microsomal stability): 0.60
IC50 [2]: 72 nM
